The experiment addresses human PAD4 (Homo sapiens (Human), UniProt Q9UM07). Briefly: In Vitro PAD4 BAEE Biochemical Assay. The note with it: human PAD4, BAEE substrate; 5 nM PAD4, 2 mM calcium chloride, 3 mM BAEE; geometric mean of multiple experiments. In outline:
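Recombinant human PAD4 (His-SUMO tag removed, E. coli-expressed), 5 nM, preincubated with compound and 2 mM CaCl2 30 min at 25 °C in MOPS pH 7.6 with DTT; 3 mM BAEE added for 2 h at 25 °C, EDTA stop. Released ammonia detected by o-phthalaldehyde/DTT fluorescence (ex 405, em 535 nm).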
human PAD4, sequence (Q9UM07 2-663): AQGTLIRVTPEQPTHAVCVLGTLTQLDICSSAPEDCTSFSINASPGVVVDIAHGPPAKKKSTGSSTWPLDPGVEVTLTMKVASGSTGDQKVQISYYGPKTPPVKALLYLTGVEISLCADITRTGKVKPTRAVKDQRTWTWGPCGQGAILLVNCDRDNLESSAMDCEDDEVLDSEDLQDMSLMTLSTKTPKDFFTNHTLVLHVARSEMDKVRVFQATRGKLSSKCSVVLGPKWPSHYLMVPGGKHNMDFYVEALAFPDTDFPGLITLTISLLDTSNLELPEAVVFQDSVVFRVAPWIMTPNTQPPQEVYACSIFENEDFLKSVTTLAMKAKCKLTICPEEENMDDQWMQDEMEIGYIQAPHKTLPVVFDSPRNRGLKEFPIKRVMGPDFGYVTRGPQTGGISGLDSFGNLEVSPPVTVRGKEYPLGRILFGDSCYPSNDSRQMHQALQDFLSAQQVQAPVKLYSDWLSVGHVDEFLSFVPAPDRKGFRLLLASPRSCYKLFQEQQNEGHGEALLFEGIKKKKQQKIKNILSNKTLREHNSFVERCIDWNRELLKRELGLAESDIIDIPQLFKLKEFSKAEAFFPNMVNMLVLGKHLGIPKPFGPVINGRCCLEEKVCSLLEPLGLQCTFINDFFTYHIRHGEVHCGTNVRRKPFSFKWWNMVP
Take `COc1cc(C(=O)N2C[C@H](N)CC[C@@H]2C)cc2nc(-c3cc4ccc(-c5cccc6c5CNC6=O)nc4n3CC3CC3)n(C)c12` [Example 262, 4-(2-(5-((2S,5R)-5-amino-2-methylpiperidine-1-carbonyl)-7-methoxy-1-methyl-1H-benzo[d]imidazol-2-yl)-1-(cyclopropylmethyl)-1H-pyrrolo[2,3-b]pyridin-6-yl)isoindolin-1-one]: the 50% inhibitory concentration (IC50) (in general, the concentration needed to halve the response being measured) worked out at 584 nM.

As to `COc1cc(C(=O)N2C[C@H](N)CC[C@@H]2C)cc2nc(-c3cc4ccc(-c5cccnc5N5CCCC5)nc4n3CC3CC3)n(C)c12` [Example 263, ((2S,5R)-5-amino-2-methylpiperidin-1-yl)(2-(1-(cyclopropylmethyl)-6-(2-(pyrrolidin-1-yl)pyridin-3-yl)-1H-pyrrolo[2,3-b]pyridin-2-yl)-7-methoxy-1-methyl-1-benzo[d]imidazol-5-yl)methanone], the IC50 was found to be 687 nM.

On to `COc1cc(C(=O)N2C[C@H](N)CC[C@@H]2C)cc2nc(-c3cc4ccc(-c5cccnc5N5CCNCC5)nc4n3CC3CC3)n(C)c12` [Example 264, ((2S,5R)-5-amino-2-methylpiperidin-1-yl)(2-(1-(cyclopropylmethyl)-6-(2-(piperazin-1-yl)pyridin-3-yl)-1H-pyrrolo[2,3-b]pyridin-2-yl)-7-methoxy-1-methyl-1H-benzo[d]imidazol-5-yl)methanone], for which the IC50 was found to be 1870 nM.

For the compound `COc1cc(C(=O)N2C[C@H](N)CC[C@@H]2C)cc2nc(-c3cc4ccc(-c5cccnc5S(C)(=O)=O)nc4n3CC3CC3)n(C)c12` [Example 265, ((2S,5R)-5-amino-2-methylpiperidin-1-yl)(2-(1-(cyclopropylmethyl)-6-(2-(methylsulfonyl)pyridin-3-yl)-1H-pyrrolo[2,3-b]pyridin-2-yl)-7-methoxy-1-methyl-1H-benzo[d]imidazol-5-yl)methanone], the IC50 was 269 nM.

For `COc1cc(C(=O)N2C[C@H](N)CC[C@@H]2C)cc2nc(-c3cc4ccc(-c5cccnc5-c5cncnc5)nc4n3CC3CC3)n(C)c12` [Example 266, ((2S,5R)-5-amino-2-methylpiperidin-1-yl)(2-(1-(cyclopropylmethyl)-6-(2-(pyrimidin-5-yl)pyridin-3-yl)-1H-pyrrolo[2,3-b]pyridin-2-yl)-7-methoxy-1-methyl-1H-benzo[d]imidazol-5-yl)methanone], the IC50 is 346 nM.

In the case of `COc1cc(C(=O)N2C[C@H](N)CC[C@@H]2C)cc2nc(-c3cc4ccc(-c5cccnc5-c5cncs5)nc4n3CC3CC3)n(C)c12` [Example 267, ((2S,5R)-5-amino-2-methylpiperidin-1-yl)(2-(1-(cyclopropylmethyl)-6-(2-(thiazol-5-yl)pyridin-3-yl)-1H-pyrrolo[2,3-b]pyridin-2-yl)-7-methoxy-1-methyl-1H-benzo[d]imidazol-5-yl)methanone], the IC50 was determined as 138 nM.

As to `COc1cc(C(=O)N2C[C@H](N)CC[C@@H]2C)cc2nc(-c3cc4ccc(-c5c(C)ccnc5-c5cnc(C)s5)nc4n3CC3CC3)n(C)c12` [Example 268, ((2S,5R)-5-amino-2-methylpiperidin-1-yl)(2-(1-(cyclopropylmethyl)-6-(4-methyl-2-(2-methylthiazol-5-yl)pyridin-3-yl)-1H-pyrrolo[2,3-b]pyridin-2-yl)-7-methoxy-1-methyl-1H-benzo[d]imidazol-5-yl)methanone], the IC50 came to 386 nM.

As for `COc1cc(C(=O)N2C[C@H](N)CC[C@@H]2C)cc2nc(-c3cc4ccc(-c5c(C)ccnc5-c5sc(C)nc5C)nc4n3CC3CC3)n(C)c12` [Example 269, ((2S,5R)-5-amino-2-methylpiperidin-1-yl)(2-(1-(cyclopropylmethyl)-6-(2-(2,4-dimethylthiazol-5-yl)-4-methylpyridin-3-yl)-1H-pyrrolo[2,3-b]pyridin-2-yl)-7-methoxy-1-methyl-1H-benzo[d]imidazol-5-yl)methanone], the IC50 turned out to be 324 nM.

For the compound `COc1cc(C(=O)N2CCC[C@@H](N)C2)cc2nc(-c3cc4ccc(-c5cccnc5-c5csc(N6CCCCC6)n5)nc4n3CC3CC3)n(C)c12` [Example 270, (R)-(3-aminopiperidin-1-yl)(2-(1-(cyclopropylmethyl)-6-(2-(2-(piperidin-1-yl)thiazol-4-yl)pyridin-3-yl)-1H-pyrrolo[2,3-b]pyridin-2-yl)-7-methoxy-1-methyl-1H-benzo[d]imidazol-5-yl)methanone], the IC50 came to 351 nM.

In the case of `CCc1nc(C)c(-c2ncccc2-c2ccc3cc(-c4nc5cc(C(=O)N6CCC[C@@H](N)C6)cc(OC)c5n4C)n(CC4CC4)c3n2)s1` [Example 271, (R)-(3-aminopiperidin-1-yl)(2-(1-(cyclopropylmethyl)-6-(2-(2-ethyl-4-methylthiazol-5-yl)pyridin-3-yl)-1H-pyrrolo[2,3-b]pyridin-2-yl)-7-methoxy-1-methyl-1H-benzo[d]imidazol-5-yl)methanone], the IC50 came out at 134 nM.

`COc1cc(C(=O)N2C[C@H](N)CC[C@@H]2C)cc2nc(-c3cc4ccc(N5CCCCC5=O)nc4n3CC3CC3)n(C)c12` [Example 272, 1-(2-(5-((2S,5R)-5-amino-2-methylpiperidine-1-carbonyl)-7-methoxy-1-methyl-1H-benzo[d]imidazol-2-yl)-1-(cyclopropylmethyl)-1H-pyrrolo[2,3-b]pyridin-6-yl)piperidin-2-one]: the IC50 turned out to be 785 nM.

For `COc1cc(C(=O)N2C[C@H](N)CC[C@@H]2C)cc2nc(-c3cc4ccc(-c5c(C)ccc6[nH]ncc56)nc4n3CC3CC3)n(C)c12` [Example 273, ((2S,5R)-5-amino-2-methylpiperidin-1-yl)(2-(1-(cyclopropylmethyl)-6-(5-methyl-1H-indazol-4-yl)-1H-pyrrolo[2,3-b]pyridin-2-yl)-7-methoxy-1-methyl-1H-benzo[d]imidazol-5-yl)methanone], the IC50 was determined as 2330 nM.

As for `COc1cc(C(=O)N2C[C@H](N)CC[C@@H]2C)cc2nc(-c3cc4ccc(-c5sc(C(C)C)nc5C)nc4n3CC3CC3)n(C)c12` [Example 274, ((2S,5R)-5-amino-2-methylpiperidin-1-yl)(2-(1-(cyclopropylmethyl)-6-(2-isopropyl-4-methylthiazol-5-yl)-1H-pyrrolo[2,3-b]pyridin-2-yl)-7-methoxy-1-methyl-1H-benzo[d]imidazol-5-yl)methanone], the half-maximal inhibitory concentration (IC50) was found to be 4910 nM.

On to `COc1cc(C(=O)N2C[C@H](N)CC[C@@H]2C)cc2nc(-c3cc4ccc(-c5ccc6nnnn6c5C)nc4n3CC3CC3)n(C)c12` [Example 275, ((2S,5R)-5-amino-2-methylpiperidin-1-yl)(2-(1-(cyclopropylmethyl)-6-(5-methyltetrazolo[1,5-a]pyridin-6-yl)-1H-pyrrolo[2,3-b]pyridin-2-yl)-7-methoxy-1-methyl-1H-benzo[d]imidazol-5-yl)methanone], for which the IC50 was determined as 658 nM.

With `COc1cc(C(=O)N2C[C@H](N)CC[C@@H]2C)cc2nc(-c3cc4ccc(-c5c(C)ccnc5-c5ccccc5)nc4n3CC3CC3)n(C)c12` [Example 276, ((2S,5R)-5-amino-2-methylpiperidin-1-yl)(2-(1-(cyclopropylmethyl)-6-(4-methyl-2-phenylpyridin-3-yl)-1H-pyrrolo[2,3-b]pyridin-2-yl)-7-methoxy-1-methyl-1H-benzo[d]imidazol-5-yl)methanone], the IC50 is 423 nM.

For the origin of these results see patent US11878965B2, “Inhibitors of peptidylarginine deiminases” (Gilead Sciences, Inc., priority 2020, dated 2024).
